Test results published in patent US20190274937A1, “MICROBIOME-SAFE COSMETIC CLEANING COMPOSITIONS” (Yun NV, priority 2016, published 2019).

Columns and labels:
lactobacillus = test: More detailed screening of the products for ingredients responsible for growth retardation (data not shown); assay type: cell-based
Description: A more detailed screening of the products (data not shown) led to a few common ingredients found in most shower cosmetics that can be held responsible for the growth retardation in FIG. 1.0. […] As strong and fast working preservatives; phenoxyethanol, parabens, bronopol, sulphites/sulphates, benzylalcohol and others were identified. Most allergens in perfume can also be identified as being harmful for bacteria.

Spread plating = assay type: cell-based; details: surfactants of negative control P3
Experimental: The negative control (P3) has no growth after incubation in MRS. It contains the anionic Sodium Laureth sulphate (14% final) and cocamidopropyl betaine, some of the most commonly used surfactants in present-day soaps.

## cocamidopropyl betaine
lactobacillus
  effect on bacteria / the present lactobacillus: big negative influence
Spread plating
  bactericidal effect: bactericidal effect

## Sodium laureth sulphate
lactobacillus
  effect on bacteria / the present lactobacillus: very strong bactericidal effect
Spread plating
  bactericidal effect: bactericidal effect
